Source: the NIST ThermoML archive (doi:10.1016/j.jct.2008.11.012)

Test: xn = mol fraction of the nth substance listed
Details: 101 kPa, Liquid; for viscosity: Concentric cylinders viscometry; for mass density: Vibrating tube method

NCCNCCN [di(2-aminoethyl)amine] + O
Details | mass density [kg/m3] | viscosity [mPa·s]
293.15 K, x1 = 0.0095 | 1001.5 | 1.31
293.15 K, x1 = 0.0299 | 1004.2 | 2.076
293.15 K, x1 = 0.0565 | 1011.5 | 4.009
293.15 K, x1 = 0.0696 | 1014.5 | 5.418
293.15 K, x1 = 0.1043 | 1023.8 | 11.63
293.15 K, x1 = 0.125 | 1026.5 | 17.94
293.15 K, x1 = 0.1591 | 1030.7 | 31.07
293.15 K, x1 = 0.2076 | 1029.4 | 50.68
293.15 K, x1 = 0.2449 | 1027.5 | 59.62
293.15 K, x1 = 0.3099 | 1019.1 | 59.42
293.15 K, x1 = 0.3438 | 1014.1 | 55.52
293.15 K, x1 = 0.4112 | 1004.1 | 43.08
293.15 K, x1 = 0.4974 | 992.8 | 30.13
293.15 K, x1 = 0.6111 | 979 | 19.46
293.15 K, x1 = 0.6988 | 971.8 | 15.12
293.15 K, x1 = 0.8073 | 963.4 | 10.61
293.15 K, x1 = 0.8954 | 957.5 | 8.515
293.15 K, x1 = 1 | 951 | 7.038
303.15 K, x1 = 0.0095 | 998.6 | 1.017
303.15 K, x1 = 0.0299 | 1000.7 | 1.557
303.15 K, x1 = 0.0565 | 1007.1 | 2.841
303.15 K, x1 = 0.0696 | 1009.6 | 3.736
303.15 K, x1 = 0.1043 | 1017.1 | 7.329
303.15 K, x1 = 0.125 | 1019.8 | 10.57
303.15 K, x1 = 0.1591 | 1023 | 16.94
303.15 K, x1 = 0.2076 | 1021.4 | 25.63
303.15 K, x1 = 0.2449 | 1018.6 | 29.47
303.15 K, x1 = 0.3099 | 1010.2 | 29.55
303.15 K, x1 = 0.3438 | 1005.7 | 27.97
303.15 K, x1 = 0.4112 | 995 | 22.7
303.15 K, x1 = 0.4974 | 983.7 | 16.77
303.15 K, x1 = 0.6111 | 970.6 | 11.54
303.15 K, x1 = 0.6988 | 962.7 | 9.116
303.15 K, x1 = 0.8073 | 954.3 | 6.899
303.15 K, x1 = 0.8954 | 948.4 | 5.713
303.15 K, x1 = 1 | 942.3 | 4.804
313.15 K, x1 = 0.0095 | 994.9 | 0.8263
313.15 K, x1 = 0.0299 | 996.7 | 1.223
313.15 K, x1 = 0.0565 | 1002.2 | 2.101
313.15 K, x1 = 0.0696 | 1004.3 | 2.684
313.15 K, x1 = 0.1043 | 1010.7 | 4.877
313.15 K, x1 = 0.125 | 1012.9 | 6.69
313.15 K, x1 = 0.1591 | 1015.4 | 10.13
313.15 K, x1 = 0.2076 | 1013.2 | 14.34
313.15 K, x1 = 0.2449 | 1009.9 | 16.2
313.15 K, x1 = 0.3099 | 1001.5 | 16.32
313.15 K, x1 = 0.3438 | 997.1 | 15.61
313.15 K, x1 = 0.4112 | 986.4 | 12.99
313.15 K, x1 = 0.4974 | 975.1 | 10.17
313.15 K, x1 = 0.6111 | 962.1 | 7.375
313.15 K, x1 = 0.6988 | 954.2 | 5.944
313.15 K, x1 = 0.8073 | 947.3 | 4.741
313.15 K, x1 = 0.8954 | 939.8 | 4.017
313.15 K, x1 = 1 | 933.8 | 3.4
323.15 K, x1 = 0.0095 | 990.5 | 0.6854
323.15 K, x1 = 0.0299 | 991.7 | 0.9871
323.15 K, x1 = 0.0565 | 996.8 | 1.615
323.15 K, x1 = 0.0696 | 998.6 | 2.012
323.15 K, x1 = 0.1043 | 1004.2 | 3.423
323.15 K, x1 = 0.125 | 1005.7 | 4.514
323.15 K, x1 = 0.1591 | 1007.9 | 6.505
323.15 K, x1 = 0.2076 | 1004.8 | 8.733
323.15 K, x1 = 0.2449 | 1001.9 | 9.728
323.15 K, x1 = 0.3099 | 993.1 | 9.836
323.15 K, x1 = 0.3438 | 988.4 | 9.492
323.15 K, x1 = 0.4112 | 978 | 8.14
323.15 K, x1 = 0.4974 | 966.8 | 6.622
323.15 K, x1 = 0.6111 | 953.7 | 5.032
323.15 K, x1 = 0.6988 | 945.9 | 4.175
323.15 K, x1 = 0.8073 | 939.1 | 3.445
323.15 K, x1 = 0.8954 | 931.5 | 2.976
323.15 K, x1 = 1 | 925.5 | 2.695
333.15 K, x1 = 0.0095 | 985.5 | 0.5792
333.15 K, x1 = 0.0299 | 986.5 | 0.8166
333.15 K, x1 = 0.0565 | 991 | 1.283
333.15 K, x1 = 0.0696 | 992.4 | 1.562
333.15 K, x1 = 0.1043 | 997.2 | 2.525
333.15 K, x1 = 0.125 | 998.2 | 3.206
333.15 K, x1 = 0.1591 | 999.9 | 4.43
333.15 K, x1 = 0.2076 | 996.3 | 5.698
333.15 K, x1 = 0.2449 | 993.1 | 6.271
333.15 K, x1 = 0.3099 | 984.1 | 6.366
333.15 K, x1 = 0.3438 | 979.6 | 6.191
333.15 K, x1 = 0.4112 | 969.2 | 5.44
333.15 K, x1 = 0.4974 | 956.8 | 4.572
333.15 K, x1 = 0.6111 | 945.1 | 3.62
333.15 K, x1 = 0.6988 | 937.3 | 3.083
333.15 K, x1 = 0.8073 | 929.1 | 2.618
333.15 K, x1 = 0.8954 | 922.9 | 2.301
333.15 K, x1 = 1 | 917 | 2.109
343.15 K, x1 = 0.0095 | 980 | 0.4978
343.15 K, x1 = 0.0299 | 980.8 | 0.6873
343.15 K, x1 = 0.0565 | 984.7 | 1.044
343.15 K, x1 = 0.0696 | 985.8 | 1.244
343.15 K, x1 = 0.1043 | 990.1 | 1.919
343.15 K, x1 = 0.125 | 990.5 | 2.376
343.15 K, x1 = 0.1591 | 992.3 | 3.174
343.15 K, x1 = 0.2076 | 987.6 | 3.938
343.15 K, x1 = 0.2449 | 984.2 | 4.293
343.15 K, x1 = 0.3099 | 975.4 | 4.372
343.15 K, x1 = 0.3438 | 970.7 | 4.277
343.15 K, x1 = 0.4112 | 960.5 | 3.846
343.15 K, x1 = 0.4974 | 949.5 | 3.308
343.15 K, x1 = 0.6111 | 936.5 | 2.721
343.15 K, x1 = 0.6988 | 929.1 | 2.366
343.15 K, x1 = 0.8073 | 920.7 | 2.067
343.15 K, x1 = 0.8954 | 914.6 | 1.833
343.15 K, x1 = 1 | 908.9 | 1.703
353.15 K, x1 = 0.0095 | 973.8 | 0.4312
353.15 K, x1 = 0.0299 | 974.6 | 0.5864
353.15 K, x1 = 0.0565 | 978.1 | 0.8677
353.15 K, x1 = 0.0696 | 978.9 | 1.017
353.15 K, x1 = 0.1043 | 982.6 | 1.507
353.15 K, x1 = 0.125 | 982.3 | 1.824
353.15 K, x1 = 0.1591 | 982.9 | 2.373
353.15 K, x1 = 0.2076 | 978.5 | 2.852
353.15 K, x1 = 0.2449 | 975.1 | 3.086
353.15 K, x1 = 0.3099 | 966.3 | 3.151
353.15 K, x1 = 0.3438 | 961.7 | 3.1
353.15 K, x1 = 0.4112 | 951.7 | 2.841
353.15 K, x1 = 0.4974 | 940.8 | 2.502
353.15 K, x1 = 0.6111 | 927.8 | 2.118
353.15 K, x1 = 0.6988 | 920.4 | 1.876
353.15 K, x1 = 0.8073 | 912.2 | 1.677
353.15 K, x1 = 0.8954 | 906.1 | 1.504
353.15 K, x1 = 1 | 900.4 | 1.409
363.15 K, x1 = 0.0095 | 967.3 | 0.3693
363.15 K, x1 = 0.0299 | 967.7 | 0.4995
363.15 K, x1 = 0.0565 | 970.9 | 0.7364
363.15 K, x1 = 0.0696 | 971.7 | 0.8452
363.15 K, x1 = 0.1043 | 974.7 | 1.213
363.15 K, x1 = 0.125 | 974.2 | 1.439
363.15 K, x1 = 0.1591 | 974.2 | 1.84
363.15 K, x1 = 0.2076 | 969.5 | 2.148
363.15 K, x1 = 0.2449 | 966.1 | 2.311
363.15 K, x1 = 0.3099 | 957 | 2.365
363.15 K, x1 = 0.3438 | 952.6 | 2.337
363.15 K, x1 = 0.4112 | 942.7 | 2.176
363.15 K, x1 = 0.4974 | 931.9 | 1.955
363.15 K, x1 = 0.6111 | 919.1 | 1.696
363.15 K, x1 = 0.6988 | 911.8 | 1.526
363.15 K, x1 = 0.8073 | 903.6 | 1.387
363.15 K, x1 = 0.8954 | 897.5 | 1.26
363.15 K, x1 = 1 | 891.9 | 1.19
